Assays:
[1] = etching rate (dissolution rate) of a deposited layer in the IPA/water mixed solvent; assay type: physicochemical; conditions: IPA 60 wt %; for etching rate: layer of the compound, polar solvent: IPA/water mixed solvent
From the text: In the present invention, a larger etching rate means a higher dissolution rate. In addition, a larger etching rate means a higher solubility of a layer having a material of interest in the solvent (polar solvent).
FIG. 3 is a graph illustrating thickness changes in the compound 1 and the compound A2 over an etching time. Here, FIG. 3 illustrates the results of the etching of the respective layers when a mixed solvent obtained by mixing isopropyl alcohol (IPA) and water so that IPA may account for 60 wt % (hereinafter, sometimes referred to as “IPA/water mixed solvent”) is used as a polar solvent.
On the other hand, the thickness of a layer (layer B) formed of the compound A2 as a heterocyclic compound reduces over time. When the etching rates of the respective layers are calculated with their etching conditions made identical to each other, the etching rate of the layer A is 0.008 nm/sec but the etching rate of the layer B is 0.87 nm/sec, that is, a ratio of the latter to the former is about 100.
Here, a ratio (n) between the etching rates of the uppermost layer (layer A) of the organic compound layer and the lowermost layer (layer B) of the release layer by the polar solvent used upon removal of the release layer under the same temperature conditions can be represented like the following equation.
Next, the photosensitive resin layer 41 was removed by performing dry etching with oxygen as a reactant gas under the conditions of a flow rate of 20 sccm, a pressure of 8 Pa, and an output of 150 W (FIG. 2L). Next, the release layer 30 was removed with a mixed solvent obtained by mixing water and IPA so that an IPA concentration was 60 wt % (FIG. 2M). It should be noted that as the etching rate of the compound (phenanthroline derivative represented by the formula (2)) constituting the release layer 30 in this example was 0.9 nm/sec, the release layer 30 was removed through immersion in the mixed solvent for 600 seconds. Next, vacuum heating was performed at 80° C. so that the solvent remaining on the organic compound layer was removed. It should be noted that the etching rate of the compound represented by the formula (1) serving as the uppermost layer of the organic compound layer placed in each sub-pixel for the polar solvent used for removing the release layer is about 0.0045 nm/sec, which is sufficiently small as compared with the etching rate of the release layer 30.

[2] = solubility in the IPA/water mixed solvent (FIG. 4); assay type: physicochemical; conditions: IPA/water mixed solvent having an IPA concentration of 80 wt %
From the text: The solubility of a compound as a constituent material for each layer in the IPA/water mixed solvent varies depending on the weight ratio of IPA in the mixed solvent. FIG. 4 is a graph illustrating the solubilities of the compound 1 (condensed polycyclic hydrocarbon compound) and the compound A2 (heterocyclic compound) in the IPA/water mixed solvent (polar solvent). Here, in the graph of FIG. 4, the axis of abscissa indicates the weight percent concentration of IPA in the IPA/water mixed solvent, and the axis of ordinate indicates the amount of the condensed polycyclic hydrocarbon compound or heterocyclic compound to dissolve in 1 g of the solvent.

SMILES | etching rate [1] [nm/s] | also measured
CC1(C)c2cc(-c3ccc4ccc5cccc6ccc3c4c56)ccc2-c2ccc(-c3ccc4ccc5cccc6ccc3c4c56)cc21 [compound 1] | 0.008 | etching rate ([1]; listed as formula (1)): about 0.0045 nm/sec; amount to dissolve in 1 g of the solvent [2]: 5 µg
CC1(C)c2ccccc2-c2ccc(-c3ccc4ccc5ccc(-c6ccc7c(c6)C(C)(C)c6ccccc6-7)nc5c4n3)cc21 [compound A2] | 0.87 | etching rate ratio (n) of layer B (release layer) to layer A (uppermost organic compound layer) ([1]; compound A2 layer versus compound 1 layer, IPA/water mixed solvent, identical etching conditions): about 100; etching rate ([1]; listed as formula (2)): 0.9 nm/s; amount to dissolve in 1 g of the solvent [2]: 73 µg
c1ccc(-c2cc(-c3ccccc3)cc(-c3cccc(-c4cccc(-c5ccc6c7ccccc7c7ccccc7c6c5)c4)c3)c2)cc1 [compound B1] | 1.3 | 
O=S(=O)(Oc1ccc2cc(-c3ccc4ccccc4c3)ccc2c1)C(F)(F)F [compound D6] | 2.5 | 
CC(C)(C)c1cc2ccc3ccc(B4OC(C)(C)C(C)(C)O4)c4ccc(c1)c2c34 [compound D8] | 3.0 | 

The next lines start with results.

etching rate [1] [nm/s] | SMILES | also measured
1.6 | c1ccc(-n2c(-c3cc(-c4nc5ccccc5n4-c4ccccc4)cc(-c4nc5ccccc5n4-c4ccccc4)c3)nc3ccccc32)cc1 [compound A7] | 
1.5 | O=C1c2ccccc2OC2C=CC(c3cccc(-c4cccc(-c5cc(-c6cccc(-c7ccccc7)c6)cc(-c6cccc(-c7ccccc7)c6)c5)c4)c3)=CC12 (stereo not drawn) [compound Cl] | 
